# Measurements: US12421210B2, “Fused bicyclic heterocycles as therapeutic agents” (NEW YORK UNIVERSITY, priority 2018, dated 2025)
# Target: human NAMPT enzyme (His-hNAMPT) (Homo sapiens (Human), UniProt P43490)
# Assay: NAMPT enzymatic inhibition assay (fluorescence, NADH product)
# Type: biochemical
# Conditions: [BPS]; read-out: NAMPT IC50 (μM) [BPS]
# human NAMPT enzyme (His-hNAMPT), sequence (P43490 whole entry): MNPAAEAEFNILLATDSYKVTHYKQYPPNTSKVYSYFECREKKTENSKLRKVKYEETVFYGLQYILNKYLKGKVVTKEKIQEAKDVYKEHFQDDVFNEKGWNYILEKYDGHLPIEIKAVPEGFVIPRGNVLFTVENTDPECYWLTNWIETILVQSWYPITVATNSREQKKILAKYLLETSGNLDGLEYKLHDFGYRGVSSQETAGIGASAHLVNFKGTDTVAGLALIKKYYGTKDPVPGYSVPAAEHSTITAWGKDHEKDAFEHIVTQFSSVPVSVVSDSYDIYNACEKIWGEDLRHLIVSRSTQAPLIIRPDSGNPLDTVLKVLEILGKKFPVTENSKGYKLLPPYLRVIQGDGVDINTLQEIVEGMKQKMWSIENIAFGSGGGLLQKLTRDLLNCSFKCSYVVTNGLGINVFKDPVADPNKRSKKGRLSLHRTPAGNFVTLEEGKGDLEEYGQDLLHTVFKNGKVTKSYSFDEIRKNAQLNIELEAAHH
row,SMILES,IC50 [µM]
1,"O=C(NCC[C@@H]1[C@H]2CN(c3ncc4ccccc4n3)C[C@@H]12)c1cc2ccncc2o1 [Example 122, N-(2-((1R,5S,6s)-3-(quinazolin-2-yl)-3-azabicyclo[3.1.0]hexan-6-yl)ethyl)furo[2,3-c]pyridine-2-carboxamide]",0.01 to 0.49
2,"CC(C)(C)OC(=O)N1C[C@@H]2[C@@H](CCNC(=O)COc3cccnc3)[C@@H]2C1 [Example 2, (1R,5S,6s)-tert-butyl 6-(2-(2-(pyridin-3-yloxy)acetamido)ethyl)-3-azabicyclo[3.1.0]hexane-3-carboxylate]",0.01 to 0.49
3,"CCN(CC)C(=O)N1C[C@@H]2[C@@H](CCNC(=O)c3cc4ccncc4o3)[C@@H]2C1 [Example 60, N-(2-((1R,5S,6s)-3-(diethylcarbamoyl)-3-azabicyclo[3.1.0]hexan-6-yl)ethyl)furo[2,3-c]pyridine-2-carboxamide]",0.01 to 0.49
4,"CC1(OC(=O)N2C[C@@H]3[C@@H](CCNC(=O)c4ccc5nc(N)sc5c4)[C@@H]3C2)COC1 [Example 49, (1R,5S,6s)-3-methyloxetan-3-yl 6-(2-(2-aminobenzo[d]thiazole-6-carboxamido)ethyl)-3-azabicyclo[3.1.0]hexane-3-carboxylate]",1 to 29
5,"CN1CCC(c2ccc(C(=O)N3C[C@@H]4[C@@H](CCNC(=O)/C=C/c5ccc(N)nc5)[C@@H]4C3)cc2)CC1 [Example 93, (E)-3-(6-aminopyridin-3-yl)-N-(2-((1R,5S,6s)-3-(4-(1-methylpiperidin-4-yl)benzoyl)-3-azabicyclo[3.1.0]hexan-6-yl)ethyl)acrylamide]",0.01 to 0.49
6,"O=C(NCC[C@@H]1[C@H]2CN(C(=O)c3ccccc3)C[C@@H]12)c1cnc2nccn2c1 [Example 76, N-(2-((1R,5S,6s)-3-benzoyl-3-azabicyclo[3.1.0]hexan-6-yl)ethyl)imidazo[1,2-a]pyrimidine-6-carboxamide]",0.01 to 0.49
7,"CC1(OC(=O)N2C[C@@H]3[C@@H](CCNC(=O)c4cnc5[nH]ncc5c4)[C@@H]3C2)COC1 [Example 55, (1R,5S,6s)-3-methyloxetan-3-yl 6-(2-(1H-pyrazolo[3,4-b]pyridine-5-carboxamido)ethyl)-3-azabicyclo[3.1.0]hexane-3-carboxylate]",> 30
8,"CC1(OC(=O)N2C[C@@H]3[C@@H](CCNC(=O)c4cc5cnccc5[nH]4)[C@@H]3C2)COC1 [Example 36, (1R,5S,6s)-3-methyloxetan-3-yl 6-(2-(1H-pyrrolo[3,2-c]pyridine-2-carboxamido)ethyl)-3-azabicyclo[3.1.0]hexane-3-carboxylate]",0.01 to 0.49
9,"CC(=O)NCC[C@@H]1[C@H]2CN(C(=O)OC(C)(C)C)C[C@@H]12 [Example 14, (1R,5S,6s)-tert-butyl 6-(2-azetamidoethyl)-3-azabicyclo[3.1.0]hexane-3-carboxylate]",> 30

# Now from value to compound:
row,IC50 [µM],SMILES
1,> 30,"CC(C)(C)OC(=O)N1C[C@@H]2[C@H](C1)[C@H]2CC1(NC(=O)/C=C/c2cccnc2)CC1 [Example 242, (1R,5S,6s)-tert-butyl 6-((1-((E)-3-(pyridin-3-yl)acrylamido)cyclopropyl)methyl)-3-azabicyclo[3.1.0]hexane-3-carboxylate]"
2,1 to 29,"CC(C)(C)OC(=O)N1CCC2CC(CNC(=O)NCc3cccnc3)CC2C1 (stereo not shown) [Example 271, tert-butyl 6-((3-(pyridin-3-ylmethyl)ureido)methyl)hexahydro-1H-cyclopenta[c]pyridine-2(3H)-carboxylate]"

# Same assay, conditions: [HDB]; read-out: NAMPT IC50 (μM) [HDB]
row,SMILES,IC50 [µM]
1,"NC(=O)c1cccc(N2C[C@@H]3[C@@H](CCNC(=O)/C=C/c4cccnc4)[C@@H]3C2)c1 [Example 183, 3-((1R,5S,6s)-6-(2-((E)-3-(pyridin-3-yl)acrylamido)ethyl)-3-azabicyclo[3.1.0]hexan-3-yl)benzamide]",0.01 to 0.49
2,"O=C(/C=C/c1cccnc1)NCC[C@@H]1[C@H]2CN(c3nc(C(F)(F)F)cs3)C[C@@H]12 [Example 175, (E)-3-(pyridin-3-yl)-N-(2-((1R,5S,6s)-3-(4-(trifluoromethyl)thiazol-2-yl)-3-azabicyclo[3.1.0]hexan-6-yl)ethyl)acrylamide]",0.01 to 0.49
3,"O=C(/C=C/c1cccnc1)NCC[C@@H]1[C@H]2CN(c3ncc(F)c(Cl)n3)C[C@@H]12 [Example 188, (E)-N-(2-((1R,5S,6s)-3-(4-chloro-5-fluoropyrimidin-2-yl)-3-azabicyclo[3.1.0]hexan-6-yl)ethyl)-3-(pyridin-3-yl)acrylamide]",< 0.01
4,"O=C(/C=C/c1cccnc1)NCC[C@@H]1[C@H]2CN(c3ccnc4ccccc34)C[C@@H]12 [Example 143, (E)-3-(pyridin-3-yl)-N-(2-((1R,5S,6s)-3-(quinolin-4-yl)-3-azabicyclo[3.1.0]hexan-6-yl)ethyl)acrylamide]",0.01 to 0.49
5,"N#Cc1ccccc1N1C[C@@H]2[C@@H](CCNC(=O)/C=C/c3cccnc3)[C@@H]2C1 [Example 135, (E)-N-(2-((1R,5S,6s)-3-(2-cyanophenyl)-3-azabicyclo[3.1.0]hexan-6-yl)ethyl)-3-(pyridin-3-yl)acrylamide]",0.01 to 0.49
6,"Nc1ccc(/C=C/C(=O)NCC[C@@H]2[C@H]3CN(c4cccc(C(F)(F)F)c4)C[C@@H]23)cn1 [Example 202, (E)-3-(6-aminopyridin-3-yl)-N-(2-((1R,5S,6s)-3-(3-(trifluoromethyl)phenyl)-3-azabicyclo[3.1.0]hexan-6-yl)ethyl)acrylamide]",0.01 to 0.49

# Continued, values first:
row,IC50 [µM],SMILES
1,1 to 29,"O=C(CCc1ccncc1)NCC[C@@H]1[C@H]2CN(c3nc(Cl)ncc3F)C[C@@H]12 [Example 215, N-(2-((1R,5S,6s)-3-(2-chloro-5-fluoropyrimidin-4-yl)-3-azabicyclo[3.1.0]hexan-6-yl)ethyl)-3-(pyridin-4-yl)propanamide]"
2,0.01 to 0.49,"O=C(/C=C/c1cccnc1)NCC[C@H]1[C@H]2CN(Cc3ccccc3)C[C@@H]12 [Example 280, (E)-N-(2-((1R,5S,6r)-3-benzyl-3-azabicyclo[3.1.0]hexan-6-yl)ethyl)-3-(pyridin-3-yl)acrylamide]"
3,0.01 to 0.49,"O=C(/C=C/c1cccnc1)NCC[C@@H]1[C@H]2CN(c3cccc4[nH]ncc34)C[C@@H]12 [Example 337, (E)-N-(2-((1R,5S,6s)-3-(1H-indazol-4-yl)-3-azabicyclo[3.1.0]hexan-6-yl)ethyl)-3-(pyridin-3-yl)acrylamide]"
4,0.01 to 0.49,"O=C(NCC[C@H]1[C@@H]2CN(c3ccc(F)cc3)C(=O)[C@H]12)c1cc(-c2cccnc2)on1 (stereo in doubt) [Example 265, N-(2-((1R,5,6S)-3-(4-fluorophenyl)-2-oxo-3-azabicyclo[3.1.0]hexan-6-yl)ethyl)-5-(pyridin-3-yl)isoxazole-3-carboxamide and N-(2-((1S,5R,6R)-3-(4-fluorophenyl)-2-oxo-3-azabicyclo[3.1.0]hexan-6-yl)ethyl)-5-(pyridin-3-yl)isoxazole-3-carboxamide]"
5,0.01 to 0.49,"Nc1ccc(/C=C/C(=O)NCC[C@@H]2[C@H]3CN(c4cccc(C(F)(F)F)c4)C(=O)[C@@H]23)cn1 (racemic) [Example 263, (E)-3-(6-aminopyridin-3-yl)-N-(2-((1R,5S,6S)-2-oxo-3-(3-(trifluoromethyl)phenyl)-3-azabicyclo[3.1.0]hexan-6-yl)ethyl)acrylamide and (E)-3-(6-aminopyridin-3-yl)-N-(2-((1S,5R,6R)-2-oxo-3-(3-(trifluoromethyl)phenyl)-3-azabicyclo[3.1.0]hexan-6-yl)ethyl)acrylamide]"
